pIC50: −log10 of the molar value. Blank lines part the entries; values can stand above or below the compound they belong to. No end group written: not given here.
Assays:
[1] = tested on: human fibroblastoid line M1 cells; conditions: for Inhibition of cAMP-mediated (2CA-induced) DNA repair induction: M1 cells preincubated overnight with 50 μg/ml soluble peptide
Text: To further determine the signaling pathways involved in DNA repair induction, the inventors used the Trevigen CometAssay™ kit (Cat. No. 4250-50-K). The CometAssay is a single-cell gel electrophoresis method that can measure a variety of types of DNA damage, and repair of damage, in individual cells. The assay is based on the alkaline lysis of labile DNA at sites of damage. The unwound, relaxed DNA is able to migrate out of the cell during electrophoresis and can be visualized by SYBR Green staining.
(§1) To quantify DNA damage, cells were collected and three parallel samples were processed (a negative control, a DNA damage control (H2O2) and a sample subjected to H2O2 following exposure to various modulators of the cAMP signaling pathway). Cells are then washed in PBS. The washed cells are combined with molten low-melting agarose (Trevigen Cat. No. 4250-50-02) and transferred to a CometSlide™ (Trevigen Cat. No. 4250-100-03). The slides are immersed in lysis buffer for 30 min, on ice, in the dark. The slides are then treated with alkali buffer for 20 to 60 min at room temperature in the dark. The slides are then electrophoresed in buffer for 10 min at 20 volts, then fixed in methanol and ethanol. The slides are then stained with SYBR green (Trevigen Cat. No. 4250-50-05) solution and fluorescently imaged with a Diagnostic Instruments digitized camera, mounted on a Nikon Eclipse E400 microscope. Scion Image software is used to quantitate the comet tail intensity. Each data point is derived from tail fluorescent intensity determination in 50–100 individual cells. Data is presented as % DNA repair (the percent decrement in tail fluorescence intensity in agonist or antagonist-treated cells, relative to the intensity recorded in cells treated with H2O2 only)±SEM. (R.U.s)
(§2) To directly examine that possibility, cells were incubated overnight with synthetic peptides corresponding to the region contained within amino acids 65–79 and their ability to mount DNA repair activity in response to cAMP-elevating agents was determined. M1 cells were preincubated overnight with 50 μg/ml of synthetic peptides corresponding to the region surrounding the third allelic hypervariable region (aa 65–79) of each of the following DRβ chains: *0401 (65–79*0401) [SEQ ID NO: 5], *0402 (65–79*0402) [SEQ ID NO: 7], *0403 (65–79*0403) [SEQ ID NO: 9] or *0404(65–79*0404) [SEQ ID NO: 10]. At the end of the preincubation, cells were collected, washed and 2CA-induced DNA repair was determined as above. Table 3 (above) lists the different third allelic hypervariable region peptides used in the entire study disclosed here.
A modified method as described previously by Auger et al. [Nature Med 2:306–310 1996] was used. Briefly, cyanogen bromide activated Speharose 4B (1.5 ml) was washed with 1 mM HCl and incubated with peptides in 0.1 M NaHCO3 and 0.5 M NaCl (pH 8) buffer overnight at 4° C. For each peptide, 5 mg was used per milliliter of Sepharose. Free Sepharose groups were blocked with 0.2 M glycine (pH 8) for 2 hours at room temperature. Columns were washed at 4° C. with the following buffers: 0.1 M NaHCO3, 0.5 M NaCl (pH 8) buffer, then 0.5 M CH3COONa (pH 4) buffer and finally PBS at pH 7.5. M1 cells were plated at a density of 0.5×10^6 cells per well (6 well plate) in 10% FBS DMEM medium until 70–80% confluence. Prior to incubation with peptides, cultures were changed to serum-free DMEM medium, then evenly overlaid with 50 μg bead conjugated peptides, and incubated for the indicated period. Soluble peptides were added overnight to M1 cells at a concentration of 50 μg/ml.

[2] = target: T1, human A2A adenosine receptor (Homo sapiens, UniProt P29274); experiment: Comet assay DNA repair in HEK293/A2a transfectants; assay type: cell-based; conditions: 20 min pretreatment, various doses
T1 construct: expressed in transfected cells; provided by Joel Linden
T1 sequence (P29274 whole entry): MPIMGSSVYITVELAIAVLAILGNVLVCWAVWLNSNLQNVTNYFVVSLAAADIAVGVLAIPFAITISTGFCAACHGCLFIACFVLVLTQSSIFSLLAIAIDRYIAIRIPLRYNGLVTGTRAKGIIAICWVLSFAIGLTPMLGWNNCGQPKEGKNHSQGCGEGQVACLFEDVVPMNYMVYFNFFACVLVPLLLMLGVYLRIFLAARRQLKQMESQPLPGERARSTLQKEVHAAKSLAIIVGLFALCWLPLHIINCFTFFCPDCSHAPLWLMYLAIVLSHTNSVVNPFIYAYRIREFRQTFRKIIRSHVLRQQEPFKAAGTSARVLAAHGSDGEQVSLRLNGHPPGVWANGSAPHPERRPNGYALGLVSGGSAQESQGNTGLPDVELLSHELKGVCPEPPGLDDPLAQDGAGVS
Experimental: as §1
(§3) Human embryonic kidney 293 cells (HEK 293) transfected with adenosine receptors were provided by Joel Linden. […]

[3] = target: T2, human A2B adenosine receptor (Homo sapiens, UniProt P29275); experiment: Comet assay DNA repair in HEK293/A2b transfectants; assay type: cell-based; conditions: 20 min pretreatment, various doses
T2 construct: expressed in transfected cells; provided by Joel Linden
T2 sequence (P29275 1-332): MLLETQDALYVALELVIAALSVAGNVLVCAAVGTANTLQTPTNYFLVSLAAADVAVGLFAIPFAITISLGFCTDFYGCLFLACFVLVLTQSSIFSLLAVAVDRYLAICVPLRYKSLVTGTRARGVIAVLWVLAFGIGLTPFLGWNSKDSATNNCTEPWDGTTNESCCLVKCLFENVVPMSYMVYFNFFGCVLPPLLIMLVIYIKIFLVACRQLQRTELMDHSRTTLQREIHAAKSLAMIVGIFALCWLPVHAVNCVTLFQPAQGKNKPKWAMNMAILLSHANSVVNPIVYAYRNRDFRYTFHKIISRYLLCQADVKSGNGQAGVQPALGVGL
Experimental: as §1, §3

[4] = tested on: Total cellular protein extracts; experiment: Peptide affinity chromatography of total cellular protein extracts; assay type: binding; conditions: total cellular protein extracts loaded
Text: Total cellular protein extracts were loaded onto columns of Sepharose beads, conjugated with either shared epitope-containing peptide 65–78*0404 [SEQ ID NO: 28] or the control peptide 65–78*0402 [SEQ ID NO: 8]. Bound proteins were eluted at low pH. […] 11 sequenced bands matched intracellular proteins, and only two sequences matched previously identified cell surface proteins: heat shock protein 60 (HSP60) and calreticulin. Both calreticulin and HSP60 are chaperones, with strong tendency to form hetero-complexes.

M1 cells = experiment: cGMP level (enzyme immunoassay) in M1 cells; assay type: cell-based, human; conditions: M1 cells exposed to 50 μg/ml soluble peptide
Experimental: cGMP was determined using an Amersham Pharmacia Biotech cGMP enzymeimmunoassay (EIA) system (Code RPN 226). The reagents (lysis reagents, standards, antibody, cGMP conjugate and wash buffer) are all prepared according to the manufacturer's instructions. Briefly, samples are acetylated with acetylation reagent (acetic anhydride in triethylamine) and then incubated with the antibody reagent and lysis buffer according to the manufacturer's instructions. The cGMP conjugate is then added and the microtiter plate is incubated according to the manufacturer's instructions. The wells are aspirated and washed, enzyme substrate is added and incubated, and the plate can be read at 630 nm or 450 nm (depending on the length of incubation and how the reaction was terminated). Controls are carried out as recommended by the manufacturer, and the results are calculated according to the manufacturer.
D.) cGMP levels in M1 cells were determined as described above using an enzyme immunoassay kit (Pharmacia) at different time points following exposure to 50 μg/ml of soluble 65–78*0401 [SEQ ID NO: 6] or 65–78*0402 [SEQ ID NO: 8] peptides.

[5] = tested on: hybrid neuroblastoma-glioma NG108–15 cell line; experiment: Neuroprotection in acutely stressed NG108–15 cells; assay type: cell-based
Experimental: In order to assess whether shared epitope-containing peptides exert a neuroprotective effect, preliminary experiments were carried out with the hybrid neuroblastoma-glioma NG108–15 cell line. Cells (10^5/ml) were first cultured overnight at near-confluence in 24-well plates in DMEM medium supplemented with 1% fetal calf serum (FCS). Under these conditions, NG108–15 cells show a flat, multipolar morphology and neurite formation. After 20 hours, cells were stressed acutely in serum-free medium (by aspiration of the medium and replacement with serum-free DMEM) with 50 μg/ml of peptides and evaluated morphologically at different time points thereafter. […] Morphological differences between cultures treated with different peptides could be observed as early as 5–6 hrs after treatment. The photographs shown were taken at the 24 hr time point. In another experiment (FIG. 12C), NG108–15 cells were cultured at low cell density (2×10^4/ml) in 1% FCS-containing DMEM medium overnight. The next day cells were subjected to acute stress in serum-free and low glucose (RPMI1640) medium (after aspiration of the 1% FCS DMEM) in the presence of 50 μg/ml of either 65–78*0401 [SEQ ID NO: 6] or 65–78*0402 [SEQ ID NO: 8] peptides. After 72 hours, cells were fixed with 1% formaldehyde and inspected microscopically. Mean±SEM was determined by averaging cell counts in eight randomly-selected microscopic fields in 200× magnification. Neurite-positive cells were defined as cells with one or more projections extending at least twice as long as the cell diameter. […] (FIG. 12C). The calculated number of neurite-positive cells was over 6-fold higher in shared epitope-containing peptide-cultured cells. When cultured in the presence of lysophosphatidic acid or high concentrations of serum, neuronal cells undergo neurite retraction (130). […] Thus, it is concluded that shared epitope-containing peptides may exert neuroprotective effects.

mouse cells = experiment: cAMP-mediated DNA repair induction in mouse cells (data not shown); assay type: cell-based
Experimental: as §2

[6] = target: T3, purified recombinant calreticulin (Homo sapiens, UniProt P27797); experiment: Surface plasmon resonance, peptides immobilized on CM5 chip, calreticulin in flow phase; assay type: binding; conditions: peptide immobilized on Biacore sensor chip CM5
T3 sequence (P27797 18-417): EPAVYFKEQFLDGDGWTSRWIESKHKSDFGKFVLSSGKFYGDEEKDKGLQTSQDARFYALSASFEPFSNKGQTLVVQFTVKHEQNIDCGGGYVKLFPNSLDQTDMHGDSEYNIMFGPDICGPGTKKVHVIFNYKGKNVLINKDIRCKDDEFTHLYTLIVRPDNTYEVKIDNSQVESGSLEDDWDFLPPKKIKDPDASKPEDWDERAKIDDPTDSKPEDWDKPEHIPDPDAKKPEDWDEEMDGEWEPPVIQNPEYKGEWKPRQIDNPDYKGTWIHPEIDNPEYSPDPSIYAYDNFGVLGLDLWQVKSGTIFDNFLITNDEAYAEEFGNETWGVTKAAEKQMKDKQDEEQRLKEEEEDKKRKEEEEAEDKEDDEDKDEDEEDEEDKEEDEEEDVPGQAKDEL
Text: To determine whether 65–78*0404 [SEQ ID NO: 28]-conjugated peptides bind these proteins directly, purified recombinant products were used. […] Shared epitope-containing peptides, 65–79*0401-[SEQ ID NO: 5] and 65–79*0404-[SEQ ID NO: 10], as well as a control peptide 65–79*0402-[SEQ ID NO: 7] were immobilized on different channels in a Biacore® sensor chip CM5 and purified recombinant calreticulin was applied in the flow phase.

calreticulin = target: T4, calreticulin (Homo sapiens, UniProt P27797); experiment: Peptide affinity column binding of purified recombinant calreticulin; conditions: immunoblot of eluate
T4 sequence (P27797 18-417): T3 sequence (P27797 18-417)

Compound: Nc1nc(Cl)nc2c1ncn2[C@@H]1O[C@H](CO)[C@@H](O)[C@H]1O [2CA, 2-chloroadenosine]
DNA repair triggered ([1]; M1 cells stimulated 20 min with various concentrations before 100 μM H2O2): triggered in all cases DNA repair
2CA-induced DNA repair signal transduced [2]: transduced the signal
2CA-induced DNA repair signal transduced [3]: transduced the signal

Compound: KDLLEQKRAAVDTY-NH2 [65–78*0401]
pIC50 [1]: ~6.60
cGMP levels (M1 cells): triggered increased cGMP levels
Inhibition of neurite retraction effect of 10% FCS ([5]; data not shown): inhibited the neurite retraction effect
Survival rate versus control peptide 65–78*0402 ([5]; low density, serum-free low glucose medium, 50 μg/ml, 72 hours, p<0.0005): significantly higher survival rate
Percentage of neurite-positive cells versus control peptide 65–78*0402 ([5]; low density, serum-free low glucose medium, 50 μg/ml, 72 hours, p<0.001): higher percentage of neurite-positive cells
Cell morphology after acute serum-free stress ([5]; near-confluent NG108–15, 50 μg/ml peptide, 24 hr): greater preservation of the multipolar flat cell morphology with neurites
Calculated number of neurite-positive cells, fold higher than control peptide ([5]; serum-free low glucose medium, 50 μg/ml, 72 hours): over 6 fold

Compound: KDLLEQRRAAVDTY [65–78*0404, synthetic peptide corresponding to amino acids 65–78 of the β chain encoded by the HLA-DRB*0404 allele]
Protein binding: distinct bands in low pH eluates of peptide-conjugated Sepharose column [4]: ~20
Binding of recombinant human calreticulin to peptide affinity column (calreticulin): specifically bound

The next lines start with results.

Protein binding: distinct bands in low pH eluates of peptide-conjugated Sepharose column [4]: no protein binding was detected
Compound: KDILEDERAAVDTYC [65–79*0402, control peptide, amino acids 65–79 of the β chain encoded by the HLA-DRB*0402 allele]

Calreticulin binding compared to control peptide 65–79*0402 [6]: markedly higher calreticulin binding
Compound: KDLLEQKRAAVDTYC [65–79*0401, synthetic peptide corresponding to amino acids 65–79 of the β chain encoded by the HLA-DRB*0401 allele]
Inhibition of cAMP-mediated (2CA-induced) DNA repair induction [1]: inhibited cAMP-mediated DNA repair induction
Inhibition of cAMP-mediated DNA repair induction (mouse cells): inhibited cAMP-mediated DNA repair induction

Calreticulin binding compared to control peptide 65–79*0402 [6]: markedly higher calreticulin binding
Compound: KDLLEQRRAAVDTYC [65–79*0404, synthetic peptide corresponding to amino acids 65–79 of the β chain encoded by the HLA-DRB*0404 allele]
Inhibition of cAMP-mediated (2CA-induced) DNA repair induction [1]: inhibited cAMP-mediated DNA repair induction
Inhibition of cAMP-mediated DNA repair induction (mouse cells): inhibited cAMP-mediated DNA repair induction

Source: patent US7208154B2, “Methods and compositions for the treatment of MHC-associated conditions” (Regents of the University of Michigan, priority 2002, dated 2007)
